Source: paper PMC4979471 (Cell Death Discovery, 2015)
Read-outs that look alike come from different tables or passages of the source.

What was measured:
Test in all cases: Kinase selectivity, P33-radiolabeled assay
Format in all cases: biochemical
[1] = target: T1, TESK1 (Homo sapiens, UniProt Q15569); settings: 10 μM ATP
T1 construct: purchased Reaction Biology Corp
Procedure, shortened: (§1)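 Reactions contained 10 μM ATP and 10 μM test compound, each run in duplicate. Kinase activity is expressed as a percentage of DMSO-treated controls.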

[2] = target: T2, c-Kit (Homo sapiens, UniProt P10721); settings: 10 μM ATP
T2 construct: purchased Reaction Biology Corp
Procedure, shortened: as §1

[3] = target: T3, BTK (Homo sapiens, UniProt Q06187); settings: 10 μM ATP
T3 construct: purchased Reaction Biology Corp
T3 sequence (Q06187 whole entry): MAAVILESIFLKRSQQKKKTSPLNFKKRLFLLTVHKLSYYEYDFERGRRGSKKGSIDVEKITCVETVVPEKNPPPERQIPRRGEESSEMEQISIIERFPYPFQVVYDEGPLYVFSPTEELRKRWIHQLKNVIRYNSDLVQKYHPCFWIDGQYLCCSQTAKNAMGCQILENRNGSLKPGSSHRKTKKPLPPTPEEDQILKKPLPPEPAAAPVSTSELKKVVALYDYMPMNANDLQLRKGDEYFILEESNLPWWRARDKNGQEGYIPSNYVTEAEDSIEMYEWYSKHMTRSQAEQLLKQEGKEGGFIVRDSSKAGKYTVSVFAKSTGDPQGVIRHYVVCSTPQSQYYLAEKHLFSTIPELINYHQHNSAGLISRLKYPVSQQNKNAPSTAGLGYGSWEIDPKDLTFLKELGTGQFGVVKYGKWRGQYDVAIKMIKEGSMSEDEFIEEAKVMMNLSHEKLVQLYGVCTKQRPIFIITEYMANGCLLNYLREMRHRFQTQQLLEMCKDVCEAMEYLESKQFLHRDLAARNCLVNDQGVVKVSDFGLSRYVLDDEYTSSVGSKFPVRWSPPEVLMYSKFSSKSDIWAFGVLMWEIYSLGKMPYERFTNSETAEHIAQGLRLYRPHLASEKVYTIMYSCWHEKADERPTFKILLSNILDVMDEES
Procedure, shortened: as §1

[4] = target: T4, MNK2 (Homo sapiens, UniProt Q9HBH9); settings: 10 μM ATP
T4 construct: purchased Reaction Biology Corp
T4 sequence (Q9HBH9 whole entry): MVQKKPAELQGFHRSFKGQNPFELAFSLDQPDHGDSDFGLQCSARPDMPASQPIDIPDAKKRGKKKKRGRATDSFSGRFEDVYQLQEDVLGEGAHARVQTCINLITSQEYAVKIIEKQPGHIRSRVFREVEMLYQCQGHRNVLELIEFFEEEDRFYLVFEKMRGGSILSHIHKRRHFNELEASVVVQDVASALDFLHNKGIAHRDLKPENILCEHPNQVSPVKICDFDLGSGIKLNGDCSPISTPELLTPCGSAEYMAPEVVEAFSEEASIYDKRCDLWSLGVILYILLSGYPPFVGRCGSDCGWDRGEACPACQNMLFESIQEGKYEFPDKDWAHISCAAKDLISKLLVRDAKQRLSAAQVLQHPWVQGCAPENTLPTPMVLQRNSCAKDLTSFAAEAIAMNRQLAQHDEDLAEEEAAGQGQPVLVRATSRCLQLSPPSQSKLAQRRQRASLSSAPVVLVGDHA
Procedure, shortened: as §1

[5] = target: T5, EGFR (Homo sapiens, UniProt P00533); settings: 10 μM ATP
T5 construct: purchased Reaction Biology Corp
T5 sequence (P00533 25-1210): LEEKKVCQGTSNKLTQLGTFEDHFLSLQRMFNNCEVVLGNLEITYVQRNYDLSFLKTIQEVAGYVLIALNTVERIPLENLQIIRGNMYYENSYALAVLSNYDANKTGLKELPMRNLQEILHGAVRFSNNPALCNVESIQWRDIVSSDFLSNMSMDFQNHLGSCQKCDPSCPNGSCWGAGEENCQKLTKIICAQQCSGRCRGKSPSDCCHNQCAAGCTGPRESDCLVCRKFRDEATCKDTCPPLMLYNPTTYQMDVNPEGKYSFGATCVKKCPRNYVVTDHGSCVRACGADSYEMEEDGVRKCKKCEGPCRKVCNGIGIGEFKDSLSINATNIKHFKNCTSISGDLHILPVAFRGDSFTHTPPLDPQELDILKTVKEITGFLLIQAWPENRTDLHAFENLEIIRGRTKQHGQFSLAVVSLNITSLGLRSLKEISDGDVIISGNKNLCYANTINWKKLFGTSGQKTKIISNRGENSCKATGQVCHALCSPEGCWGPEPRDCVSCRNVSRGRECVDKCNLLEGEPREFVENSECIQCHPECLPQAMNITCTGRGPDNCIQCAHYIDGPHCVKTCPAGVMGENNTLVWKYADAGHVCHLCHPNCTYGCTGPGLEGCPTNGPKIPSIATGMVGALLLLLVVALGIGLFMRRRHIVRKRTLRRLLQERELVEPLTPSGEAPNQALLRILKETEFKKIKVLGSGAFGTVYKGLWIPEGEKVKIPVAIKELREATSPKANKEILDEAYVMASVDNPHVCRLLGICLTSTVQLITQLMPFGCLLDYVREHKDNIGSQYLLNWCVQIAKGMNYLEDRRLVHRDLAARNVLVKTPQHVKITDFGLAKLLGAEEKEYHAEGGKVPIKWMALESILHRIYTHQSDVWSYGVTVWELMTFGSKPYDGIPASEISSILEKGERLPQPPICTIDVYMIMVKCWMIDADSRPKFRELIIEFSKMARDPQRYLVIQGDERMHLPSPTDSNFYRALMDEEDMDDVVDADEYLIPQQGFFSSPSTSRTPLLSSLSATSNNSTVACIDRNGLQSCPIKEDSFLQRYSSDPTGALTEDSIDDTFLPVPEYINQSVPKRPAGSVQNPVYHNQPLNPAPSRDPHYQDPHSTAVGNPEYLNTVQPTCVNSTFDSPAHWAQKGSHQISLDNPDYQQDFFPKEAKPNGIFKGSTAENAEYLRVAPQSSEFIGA
Procedure, shortened: as §1

[6] = target: T6, EPHA6 (Homo sapiens, UniProt Q9UF33); settings: 10 μM ATP
T6 construct: purchased Reaction Biology Corp
T6 sequence (Q9UF33 23-1036): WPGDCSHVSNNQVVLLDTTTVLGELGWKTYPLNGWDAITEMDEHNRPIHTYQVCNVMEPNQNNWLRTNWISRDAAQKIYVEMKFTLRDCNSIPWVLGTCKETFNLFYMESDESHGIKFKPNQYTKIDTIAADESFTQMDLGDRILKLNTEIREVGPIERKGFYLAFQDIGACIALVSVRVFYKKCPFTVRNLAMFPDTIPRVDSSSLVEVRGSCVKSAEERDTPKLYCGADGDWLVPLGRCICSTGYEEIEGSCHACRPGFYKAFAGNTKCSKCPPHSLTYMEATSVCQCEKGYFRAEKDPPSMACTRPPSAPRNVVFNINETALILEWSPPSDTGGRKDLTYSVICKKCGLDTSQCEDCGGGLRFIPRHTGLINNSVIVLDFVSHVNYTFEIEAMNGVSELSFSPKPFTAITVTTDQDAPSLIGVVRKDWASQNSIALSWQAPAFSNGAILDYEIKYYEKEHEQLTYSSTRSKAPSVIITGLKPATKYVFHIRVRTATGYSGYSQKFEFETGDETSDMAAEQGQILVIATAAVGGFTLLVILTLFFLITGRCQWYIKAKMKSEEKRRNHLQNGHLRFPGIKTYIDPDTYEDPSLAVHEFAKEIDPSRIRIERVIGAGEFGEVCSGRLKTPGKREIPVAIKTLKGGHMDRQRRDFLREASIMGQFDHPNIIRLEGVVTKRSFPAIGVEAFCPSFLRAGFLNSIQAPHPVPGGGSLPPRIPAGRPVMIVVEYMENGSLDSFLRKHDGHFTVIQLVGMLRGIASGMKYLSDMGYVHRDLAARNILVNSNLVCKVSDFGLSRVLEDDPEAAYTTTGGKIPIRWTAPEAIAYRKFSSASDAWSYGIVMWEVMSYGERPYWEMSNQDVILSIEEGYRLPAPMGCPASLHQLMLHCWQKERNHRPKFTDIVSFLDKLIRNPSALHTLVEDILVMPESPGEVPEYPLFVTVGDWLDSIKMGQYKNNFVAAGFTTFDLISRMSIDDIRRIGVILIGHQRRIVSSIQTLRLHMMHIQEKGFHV
Procedure, shortened: as §1

[7] = target: T7, TTBK2 (Homo sapiens, UniProt Q6IQ55); settings: 10 μM ATP
T7 construct: purchased Reaction Biology Corp
T7 sequence (Q6IQ55 whole entry): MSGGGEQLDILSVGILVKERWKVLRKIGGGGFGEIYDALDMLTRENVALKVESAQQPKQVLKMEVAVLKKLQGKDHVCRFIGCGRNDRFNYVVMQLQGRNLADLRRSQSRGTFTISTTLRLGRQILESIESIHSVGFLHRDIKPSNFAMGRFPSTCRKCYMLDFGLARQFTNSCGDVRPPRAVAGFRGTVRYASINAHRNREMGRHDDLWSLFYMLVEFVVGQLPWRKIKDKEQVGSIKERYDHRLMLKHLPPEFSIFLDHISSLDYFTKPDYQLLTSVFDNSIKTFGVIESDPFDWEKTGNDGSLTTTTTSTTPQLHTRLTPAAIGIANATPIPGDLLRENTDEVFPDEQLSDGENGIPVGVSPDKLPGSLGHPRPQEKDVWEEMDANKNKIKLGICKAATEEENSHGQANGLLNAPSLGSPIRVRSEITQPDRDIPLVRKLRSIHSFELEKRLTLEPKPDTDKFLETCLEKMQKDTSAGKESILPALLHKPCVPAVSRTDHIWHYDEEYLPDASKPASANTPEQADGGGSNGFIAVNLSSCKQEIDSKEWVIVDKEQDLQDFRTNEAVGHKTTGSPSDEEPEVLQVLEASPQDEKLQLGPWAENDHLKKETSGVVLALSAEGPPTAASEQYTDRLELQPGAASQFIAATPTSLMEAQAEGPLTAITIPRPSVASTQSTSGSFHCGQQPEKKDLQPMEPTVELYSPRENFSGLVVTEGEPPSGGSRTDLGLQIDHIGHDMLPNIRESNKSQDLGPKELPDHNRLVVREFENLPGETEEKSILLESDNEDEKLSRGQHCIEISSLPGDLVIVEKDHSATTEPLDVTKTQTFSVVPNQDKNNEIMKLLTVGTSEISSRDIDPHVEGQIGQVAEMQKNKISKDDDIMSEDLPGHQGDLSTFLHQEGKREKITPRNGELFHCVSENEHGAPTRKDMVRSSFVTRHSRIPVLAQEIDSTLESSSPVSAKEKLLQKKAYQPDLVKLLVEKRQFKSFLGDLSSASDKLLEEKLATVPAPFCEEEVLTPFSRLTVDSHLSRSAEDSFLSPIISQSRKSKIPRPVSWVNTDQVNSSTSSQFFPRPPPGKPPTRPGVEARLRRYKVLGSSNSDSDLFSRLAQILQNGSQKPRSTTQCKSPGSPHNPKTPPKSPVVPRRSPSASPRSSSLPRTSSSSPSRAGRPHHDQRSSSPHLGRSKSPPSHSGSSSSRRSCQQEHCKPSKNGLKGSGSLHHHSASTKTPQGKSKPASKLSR
Procedure, shortened: as §1

[8] = target: T8, ROS/ROS1 (Homo sapiens, UniProt P08922)
T8 construct: purchased Reaction Biology Corp
Procedure, shortened: as §1

[9] = target: T9, Haspin (Homo sapiens, UniProt Q8TF76); settings: 10 μM ATP
T9 construct: purchased Reaction Biology Corp
T9 sequence (Q8TF76 1-798): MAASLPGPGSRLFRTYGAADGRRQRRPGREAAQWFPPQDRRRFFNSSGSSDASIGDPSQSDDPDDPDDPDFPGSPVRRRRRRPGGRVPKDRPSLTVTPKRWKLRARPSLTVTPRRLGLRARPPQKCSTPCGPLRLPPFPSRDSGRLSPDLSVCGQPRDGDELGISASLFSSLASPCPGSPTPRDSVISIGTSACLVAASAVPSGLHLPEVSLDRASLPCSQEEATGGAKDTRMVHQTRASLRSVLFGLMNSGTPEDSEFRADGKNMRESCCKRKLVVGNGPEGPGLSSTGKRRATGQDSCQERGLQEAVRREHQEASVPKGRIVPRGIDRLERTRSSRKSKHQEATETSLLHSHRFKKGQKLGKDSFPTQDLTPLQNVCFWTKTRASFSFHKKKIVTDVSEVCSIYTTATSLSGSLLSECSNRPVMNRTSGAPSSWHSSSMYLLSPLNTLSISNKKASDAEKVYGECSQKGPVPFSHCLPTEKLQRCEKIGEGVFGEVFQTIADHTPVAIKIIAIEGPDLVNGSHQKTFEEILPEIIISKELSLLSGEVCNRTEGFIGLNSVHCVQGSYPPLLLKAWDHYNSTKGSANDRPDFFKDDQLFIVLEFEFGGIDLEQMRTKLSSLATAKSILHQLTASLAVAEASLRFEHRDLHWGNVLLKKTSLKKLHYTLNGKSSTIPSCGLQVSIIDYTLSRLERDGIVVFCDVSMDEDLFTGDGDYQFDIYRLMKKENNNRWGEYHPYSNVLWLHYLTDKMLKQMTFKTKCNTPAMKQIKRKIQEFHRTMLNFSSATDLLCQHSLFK
Procedure, shortened: as §1

[10] = read-out: % Enzyme Activity (relative to DMSO controls) AVG
[11] = read-out: % Enzyme Activity (relative to DMSO controls) Data 1
[12] = read-out: % Enzyme Activity (relative to DMSO controls) Data 2

T1 sequence (Q15569 whole entry): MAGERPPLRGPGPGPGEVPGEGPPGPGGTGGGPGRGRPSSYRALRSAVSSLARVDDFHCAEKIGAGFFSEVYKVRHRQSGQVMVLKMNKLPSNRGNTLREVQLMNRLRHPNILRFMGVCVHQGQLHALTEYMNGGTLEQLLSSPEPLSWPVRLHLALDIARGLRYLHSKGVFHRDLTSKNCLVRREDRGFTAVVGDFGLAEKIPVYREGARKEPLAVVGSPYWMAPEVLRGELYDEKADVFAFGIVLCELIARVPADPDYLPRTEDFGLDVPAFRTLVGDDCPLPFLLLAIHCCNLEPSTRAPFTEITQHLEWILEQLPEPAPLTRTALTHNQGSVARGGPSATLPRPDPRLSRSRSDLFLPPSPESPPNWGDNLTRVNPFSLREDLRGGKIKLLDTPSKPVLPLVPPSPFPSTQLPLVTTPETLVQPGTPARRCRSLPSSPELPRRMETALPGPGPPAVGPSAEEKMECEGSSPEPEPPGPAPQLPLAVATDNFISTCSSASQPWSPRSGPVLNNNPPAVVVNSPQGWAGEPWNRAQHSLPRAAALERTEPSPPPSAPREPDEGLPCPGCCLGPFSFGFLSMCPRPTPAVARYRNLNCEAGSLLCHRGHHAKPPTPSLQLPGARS

CC(C)(C)C(=O)N1N=CC[C@H]1c1ccccc1 [GSK′963]
remaining activity at 10 µM [1, 10]: 116%
remaining activity at 10 µM [1, 11]: 112%
remaining activity at 10 µM [1, 12]: 120%
remaining activity at 10 µM [2, 10]: 83.6%
remaining activity at 10 µM [2, 11]: 83%
remaining activity at 10 µM [2, 12]: 84.1%
remaining activity at 10 µM [3, 10]: 95.6%
remaining activity at 10 µM [3, 11]: 95%
remaining activity at 10 µM [3, 12]: 96.1%
remaining activity at 10 µM [4, 10]: 109%
remaining activity at 10 µM [4, 11]: 107%
remaining activity at 10 µM [4, 12]: 111%
remaining activity at 10 µM [5, 10]: 106%
remaining activity at 10 µM [5, 11]: 105%
remaining activity at 10 µM [5, 12]: 108%
remaining activity at 10 µM [6, 10]: 99.3%
remaining activity at 10 µM [6, 11]: 101%
remaining activity at 10 µM [6, 12]: 97.5%
remaining activity at 10 µM [7, 10]: 97.8%
remaining activity at 10 µM [7, 11]: 98.5%
remaining activity at 10 µM [7, 12]: 97.1%
remaining activity at 10 µM ([8]; 10 uM, 10 μM ATP, read-out: % Enzyme Activity (relative to DMSO controls) Data 1): 102%
remaining activity at 10 µM ([8]; 10 uM, 10 μM ATP, read-out: % Enzyme Activity (relative to DMSO controls) Data 2): 100%
remaining activity at 10 µM [8, 10]: 101%
remaining activity at 10 µM [9, 10]: 96.7%
remaining activity at 10 µM [9, 11]: 97.3%
remaining activity at 10 µM [9, 12]: 96.2%
